Laboratory results: US10745408B2, “Biologically active taxane analogs and methods of treatment by oral administration” (Tapestry Pharmaceuticals, Inc., priority 2007, dated 2020)

Assays:
[1] = system: bovine microtubule protein; assay: In vitro ED50 MT polymerization study (DAPI fluorescence tubulin assay); assay type: biochemical; details: for ED50 Compound/ED50 Paclitaxel: ratio; for EC50: tubulin polymerization, 37° C. 30 minutes, maximum assembly = 25 μM paclitaxel
Experimental: In Vitro ED50 MT Polymerization Study
In this tubulin binding assay, microtubule protein (MTP) is used as a substrate. The assay contains bovine tubulin plus microtubule associated proteins (MAP). MTP is polymerized into microtubules in the presence of DAPI (4′,6′-diamidino-2-phenylindole), a fluorescent compound. DAPI binds to tubulin; when microtubules are formed and there is an enhancement of fluorescence. The microtubule formation is measured as a function of time, using a fluorescence plate reader. […] The method used is based on the procedure published by Donna M. Barron, et al, “Fluorescence-based high-throughput assay for antimicrotuble drugs” Analytical Biochemistry, 315: 49-56, 2003, which is incorporated by reference in its entirety. The excitation wavelength, in that assay, was set at 370 nm and the emission wavelength was set at 450 nm for the DAPI experiments.
A Bio-Tek FL 600 microplate Fluorescence Reader was used to measure the relative level of fluorescence in the DAPI assay.
Assays were conducted in 96-well plates. Each well contained a total volume of 0.1 mL consisting of PEM buffer (0.1 M Pipes, 1 mM EGTA, 1 mM MgCl2, pH 6.9), 0.2 mg bovine microtubule protein, and 10 μg of DAPI. […] The final DMSO concentration was 4%. The plates were incubated at 37° C. for 30 minutes and read in a fluorescence plate reader using an excitation wavelength of 360 nm and an emission wavelength of 460 nm. Fluorescence values were corrected for the sample without compound.
Experiments were done twice in triplicate. Results were subsequently combined and fit to a non-linear regression program.

[2] = system: U251 human CNS tumor cells (glioblastoma); details: temozolomide 80 mg/kg/dose po q4d×3
From the text: Tumor Model: Each animal was implanted with one million U251 human CNS tumor cells from an in vitro cell line by ic injection with a 25 gauge needle. The day of tumor implantation (May 24, 2006) was designated as day 0. A sufficient number of mice were implanted so that animals with body weights in a range as narrow as possible were selected for the trial on the day of treatment initiation (day 1 after tumor implantation). Animals were randomly assigned to the treatment groups and individually identified by earmark codes.
A portion of this solution was then diluted with the complete vehicle to achieve the lower dosing concentration of 1.2 mg/mL. […] Temozolomide (Temodar, Schering Corporation) was prepared on each day of injection in Klucel+tween 80 at a concentration of 4 mg/mL. Temozolomide was administered within 5 minutes of formulation on the basis of exact body weight using a volume of 0.2 mL/10 g of body weight.
Data Collection: Animal health surveillance was conducted and mortality data were collected daily. The animals were weighed twice weekly starting with the first day of treatment.
Study Duration: The study was terminated 100 days after tumor implantation. Any animal found moribund or whose body weight dropped below 14 g was euthanized prior to study termination.
Parameters Evaluated: Number of 100-day survivors, median day of death, and the increase in lifespan based on median day of death and expressed as a percentage (% ILS), median survival time and the % ILS based on median survival time.

SMILES	ED50 Compound/ED50 Paclitaxel [1]	EC50 [1] [µM]	ILS based on median survival time [2] [%]	median day of death [2] [days]	median survival time [2] [days]	survivors day 100 [2]
CC(=O)O[C@@]12CO[C@@H]1C[C@H](O)[C@@]1(C)C(=O)[C@H](O)C3=C(C)[C@@H](OC(=O)[C@H](O)[C@@H](NC(=O)OC(C)(C)C)c4ccccc4)C[C@@](O)([C@@H](OC(=O)c4ccccc4)[C@H]21)C3(C)C [Docetaxel]	1.07	3.18 ± 0.45	–	–	–	–
C/C(=C\c1csc(C)n1)[C@@H]1C[C@@H]2O[C@]2(C)CCC[C@H](C)[C@H](O)[C@@H](C)C(=O)C(C)(C)[C@@H](O)CC(=O)O1 [Epothilone B]	1.11	3.31 ± 0.51	–	–	–	–
Cn1nnc2c(C(N)=O)ncn2c1=O [temozolomide, Temozolomide]	–	–	400	48	50	100 = 1)
